Laboratory results from patent US8685981B2, “Cyclic compound having hetero atom” (Daiichi Sankyo Company, Limited, priority 2009, dated 2014).

System: ST2 cells, murine bone marrow-derived stromal cells
Assay: Osteoblast differentiation test (alkaline phosphatase activity)
Type: cell-based
Settings: Mus musculus, ST-2, 96 h, at 0.03 μg/mL, four days of culturing, control group (0.1% DMSO) set at 100%, read-out: increase (%) in alkaline phosphatase activity
Procedure: ST2 cells, murine bone marrow-derived stromal cells, (obtained from RIKEN) were used.
In this test, α-MEM media (obtained from GIBCO BRL Cat. No. 10370-021) containing 10% (v/v) of inactivated calf serum (obtained from Hyclone Laboratories, Inc.) and 1% (v/v) of Penicillin-Streptomycin Liquid (obtained from GIBCO BRL Cat. No. 15140-122) (hereinbelow, abbreviated as 10%-FBS-αMEM) were used. In this test, all culturing was performed in a CO2 incubator (37° C., 95% humidity, 5% CO2).
The aforementioned cells were detached with 2 mL of a 0.25% trypsin solution (obtained from GIBCO BRL Cat. No. 15050-065) and dispersed in 10 mL of 10%-FBS-αMEM. Subsequently, the cells were collected by centrifugation (25° C., 800 rpm, five minutes). Then, a cell suspension containing 40000 of the cells/mL of 10%-FBS-αMEM was prepared. The cell suspension was then dispensed into 96-well plates (the product of Falcon), 100 μL per well, at a density of 4000 cells/well, followed by culturing for 24 hours. To the wells except for the below-described well containing a control group, the compound was dispensed at final concentrations of 0.01, 0.03, 0.1, and 0.3 μg/ml. To the well of a control group, DMSO was dispensed at a final concentration of 0.1% (v/v). After four days of culturing, the activity of alkaline phosphatase (ALP) was measured in each group.
The measurement of ALP activity was performed as follows. That is, the medium in each well of the culture plates was completely removed. Each well was then washed by dispensing 100 μL of Dulbecco's phosphate buffer (obtained from GIBCO BRL Cat. No. 14190-144) and then removing it. A cell lysate solution containing 10 mM MgCl2 and 2% (v/v) TritonX-100 (Sigma) was prepared and dispensed at 50 μL/well, followed by stirring at room temperature for five minutes. An ALP substrate solution containing 50 mM diethanolamine (Wako pure chemical industries, Ltd., Cat. No. 099-03112) and 20 mM p-nitrophenyl phosphate (Wako pure chemical industries, Ltd., Cat. No. 147-02343) was prepared and dispensed at 50 μL/well, and the plates were left to stand at room temperature for 10 minutes. Subsequently, absorbance was measured by a microplate reader (Bio-Rad Laboratories, Inc.). Setting the measurement value of the control group of each plate at 100%, the increase (%) in alkaline phosphatase activity in the test compound-addition group was calculated, which was assessed as the degree of osteoblast differentiation.

| SMILES | activity at 0.03 µg/mL [%] |
| --- | --- |
| NC(=O)c1ccc2cncc(N3CCC(COC4CCCCO4)CC3)c2c1 (centres unmarked) [Example 52] | ≥ 200 |
| CC(C)(O)C1CCN(c2cncc3ccc(C(N)=O)cc23)CC1 [Example 69] | ≥ 200 |
| NC(=O)c1ccc2cncc(N3CCC(c4ccccc4)CC3)c2c1 [Example 42] | ≥ 200 |
| NC(=O)c1ccc2cncc(N3CCC(C(F)(F)F)CC3)c2c1 [Example 44] | ≥ 200 |
| COCC1CCN(c2cncc3ccc(C(N)=O)cc23)C1 (centres unmarked) [Example 73] | ≥ 200 |
| NC(=O)c1ccc2cncc(N3CCCC(COC(F)F)C3)c2c1 (centres unmarked) [Example 103] | ≥ 200 |
| NC(=O)c1ccc2cncc(N3CCN(c4ccc([N+](=O)[O-])cc4)CC3)c2c1 [Example 57] | ≥ 200 |
| NC(=O)c1ccc2cncc(N3CCC(OCC(=O)N4CCOCC4)CC3)c2n1 [Example 100] | ≥ 200 |
| CC(C)(C)OC(=O)NCCOCC1CCCN(c2cncc3ccc(C(N)=O)cc23)C1 (centres unmarked) [Example 21, Tert-butyl (2-{[1-(6-carbamoylisoquinolin-4-yl)piperidin-3-yl]methoxy}ethyl)carbamate] | ≥ 200 |
| CN(CCOC1CCN(c2cncc3ccc(C(N)=O)nc23)CC1)S(C)(=O)=O [Example 9, 8-(4-{2-[Methyl(methylsulfonyl)amino]ethoxy}piperidin-1-yl)-1,6-naphthyridine-2-carboxamide] | ≥ 200 |
| NC(=O)c1ccc2cncc(N3CCC(O)(c4ccccc4)CC3)c2c1 [Example 23, 4-(4-Hydroxy-4-phenylpiperidin-1-yl)isoquinoline-6-carboxamide] | ≥ 200 |
| NC(=O)c1ccc2cncc(N3CCC(c4ccccc4)CC3)c2n1 [Example 83] | ≥ 200 |
| COCC1CN(c2cncc3ccc(C(N)=O)cc23)CCN1c1ccccc1 (centres unmarked) [Example 84] | ≥ 200 |
| CN(CCOC1CCN(c2cncc3ccc(C(N)=O)cc23)CC1)S(C)(=O)=O [Example 102] | ≥ 200 |
| CN(C)C(=O)COC1CCN(c2cncc3ccc(C(N)=O)cc23)CC1 [Example 94] | ≥ 200 |
| NC(=O)c1ccc2cncc(N3CCC(F)(F)CC3)c2c1 [Example 43] | ≥ 200 |
| NC(=O)c1ccc2cncc(N3CCCCC3)c2c1 [Example 16, 4-(Piperidin-1-yl)isoquinoline-6-carboxamide] | ≥ 200 |
| NC(=O)c1ccc2cncc(N3CCCN(c4ccccc4)CC3)c2c1 [Example 63] | ≥ 200 |
| CCOC1CCCN(c2cncc3ccc(C(N)=O)cc23)C1 (centres unmarked) [Example 38] | ≥ 200 |
| NC(=O)c1ccc2cncc(N3CCC(OCCO)CC3)c2c1 [Example 20, 4-[4-(2-Hydroxyethoxy)piperidin-1-yl]isoquinoline-6-carboxamide] | ≥ 200 |
| CN(C)C(=O)N1CCN(c2cncc3ccc(C(N)=O)cc23)CC1 [Example 99] | ≥ 200 |

| SMILES | activity at 0.03 µg/mL [%] |
| --- | --- |
| NC(=O)c1ccc2cncc(N3CCc4ccccc4C3)c2c1 [Example 59] | ≥ 200 |
| NC(=O)c1ccc2cncc(N3CCC(OCC4CCCO4)CC3)c2c1 (centres unmarked) [Example 68] | ≥ 200 |
| CC(=O)N1CCN(c2cncc3ccc(C(N)=O)cc23)CC1 [Example 79] | ≥ 200 |
| CC(C)OCCOC1CCN(c2cncc3ccc(C(N)=O)nc23)CC1 [Example 111] | ≥ 200 |
| COCC1CN(c2cncc3ccc(C(N)=O)cc23)CCO1 (centres unmarked) [Example 105] | ≥ 200 |
| CC(=O)c1ccc(N2CCN(c3cncc4ccc(C(N)=O)cc34)CC2)cc1 [Example 50] | ≥ 200 |
| NC(=O)c1ccc2cncc(N3CCCC(CO)C3)c2c1 (centres unmarked) [Example 56] | ≥ 200 |
| CN(C)C(=O)C1CCN(c2cncc3ccc(C(N)=O)cc23)CC1 [Example 74] | ≥ 200 |
| NC(=O)c1ccc2cncc(N3CCC(OCCOCC4CCOC4)CC3)c2n1 (centres unmarked) [Example 5, 8-{4-[2-(Tetrahydrofuran-3-ylmethoxy)ethoxy]piperidin-1-yl}-1,6-naphthyridine-2-carboxamide] | ≥ 200 |
| NC(=O)c1ccc2cncc(-n3cccc3)c2c1 [Example 34] | ≥ 200 |
| NC(=O)c1ccc2cncc(N3CCN(c4cccc(F)c4)CC3)c2c1 [Example 60] | ≥ 200 |
| COCCC1CCCN(c2cncc3ccc(C(N)=O)cc23)C1 (centres unmarked) [Example 41] | ≥ 200 |
| NC(=O)c1ccc2cncc(N3CCC(C4CCOCC4)CC3)c2c1 [Example 65] | ≥ 200 |
| NC(=O)c1ccc2cncc(N3CCN(C(=O)N4CCCC4)CC3)c2n1 [Example 114] | ≥ 200 |
| COC[C@@H]1CCCN(c2cncc3ccc(C(N)=O)cc23)C1 [Example 40] | ≥ 200 |
| NC(=O)c1ccc2cncc(N3CCC(CO)CC3)c2c1 [Example 55] | ≥ 200 |
| Cc1ccn(-c2cncc3ccc(C(N)=O)cc23)c1 [Example 66] | ≥ 200 |
| CCN(C)C(=O)COC1CCN(c2cncc3ccc(C(N)=O)nc23)CC1 [Example 116] | ≥ 200 |
| COCCOC1CCN(c2cncc3ccc(C(N)=O)nc23)CC1 [Example 1, 8-[4-(2-Methoxyethoxy)piperidin-1-yl]-1,6-naphthyridine-2-carboxamide] | ≥ 200 |
| COCC1CCN(c2cncc3ccc(C(N)=O)cc23)CC1 [Example 37] | ≥ 200 |
| NC(=O)c1ccc2cncc(N3CCC(F)CC3)c2c1 [Example 45] | ≥ 200 |

| SMILES | activity at 0.03 µg/mL [%] |
| --- | --- |
| NC(=O)c1ccc2cncc(N3CCN(C(=O)c4ccccc4)CC3)c2c1 [Example 78] | ≥ 200 |
| NC(=O)c1ccc2cncc(N3CCC(COC4CCOCC4)CC3)c2c1 [Example 77] | ≥ 200 |
| CC(=O)c1ccn(-c2cncc3ccc(C(N)=O)cc23)c1 [Example 48] | ≥ 200 |
| NC(=O)c1ccc2cncc(N3CCN(c4nccs4)CC3)c2c1 [Example 18, 4-[4-(1,3-Thiazol-2-yl)piperazin-1-yl]isoquinoline-6-carboxamide] | ≥ 200 |
| CC1CCN(c2cncc3ccc(C(N)=O)cc23)CC1 [Example 47] | ≥ 200 |
| NC(=O)c1ccc2cncc(N3CCN(c4cccc(F)c4)CC3)c2n1 [Example 32] | ≥ 200 |
| CCOCCOC1CCN(c2cncc3ccc(C(N)=O)nc23)CC1 [Example 2, 8-[4-(2-Ethoxyethoxy)piperidin-1-yl]-1,6-naphthyridine-2-carboxamide] | ≥ 200 |
| CN(C)S(=O)(=O)CCOC1CCN(c2cncc3ccc(C(N)=O)cc23)CC1 [Example 106] | ≥ 200 |
| NC(=O)c1ccc2cncc(N3CCC(OCC(=O)N4CCOCC4)CC3)c2c1 [Example 93] | ≥ 200 |
| COCC1CCCN(c2cncc3ccc(C(N)=O)nc23)C1 (centres unmarked) [Example 11, 8-[3-(Methoxymethyl)piperidin-1-yl]-1,6-naphthyridine-2-carboxamide] | ≥ 200 |
| COCC1CCCN(c2cncc3ccc(C(N)=O)cc23)C1 (centres unmarked) [Example 17, 4-[3-(Methoxymethyl)piperidin-1-yl]isoquinoline-6-carboxamide] | ≥ 200 |
| N#Cc1ccc(N2CCN(c3cncc4ccc(C(N)=O)cc34)CC2)cc1 [Example 62] | ≥ 200 |
| NC(=O)c1ccc2cncc(N3CCC(OCC(=O)N4CCCC4)CC3)c2n1 [Example 113] | ≥ 200 |
| NC(=O)c1ccc2cncc(N3CCCC(COC(F)F)C3)c2n1 (centres unmarked) [Example 104] | ≥ 200 |
| NC(=O)c1ccc2cncc(N3CCC(Oc4ccccc4)CC3)c2c1 [Example 64] | ≥ 200 |
| NC(=O)c1ccc2cncc(N3CCC(O)CC3)c2c1 [Example 89] | ≥ 200 |
| NC(=O)c1ccc2cncc(N3CCC(OC4CCCCO4)CC3)c2c1 (centres unmarked) [Example 75] | ≥ 200 |
| NC(=O)c1ccc2cncc(N3CCC(C(=O)c4ccc(F)cc4)CC3)c2c1 [Example 70] | ≥ 200 |
| NC(=O)c1ccc2cncc(N3CCC(OCCOC4CCOCC4)CC3)c2n1 [Example 6, 8-{4-[2-(Tetrahydro-2H-pyran-4-yloxy)ethoxy]piperidin-1-yl}-1,6-naphthyridine-2-carboxamide] | ≥ 200 |
| NC(=O)c1ccc2cncc(N3CCC(OCCS(=O)(=O)N4CCOCC4)CC3)c2c1 [Example 97] | ≥ 200 |
